Experimental data as given in paper PMC3481155, “AhR activation underlies the CYP1A autoinduction by A-998679 in rats” (Frontiers in Genetics, 2012).

Key:
[1] = test system: Cyp1a2; assay: Cyp1a2 mRNA in rat liver after 5 days of dosing (microarray, RT-PCR); type: in vivo
Description: All animal experiments were conducted in accordance with the Guiding Principles in the Use of Animals in Toxicology (http://www.toxicology.org/ai/air/air6.asp) and were approved by Abbott's Institutional Animal Care and Use Committee (IACUC). Male Sprague-Dawley rats [Crl:CD®(SD)IGS BR], weighing ~250 g at study initiation were obtained from Charles River Laboratories, Inc. (Wilmington, MA). Rats were housed singly in ventilated, stainless steel, wire-bottom hanging cages and fed non-certified Rodent Chow (Harlan Labs, Madison, WI), and water ad libitum and acclimated for at least 5 days after arrival. […] Serum clinical chemistry parameters were quantified using an Aeroset Clinical Chemistry Analyzer (Abbott Laboratories, Abbott Park, IL) and included alanine amino transferase (ALT), aspartate amino transferase (AST), gamma glutamyltransferase (GGT), and alkaline phosphatase (ALP) activities.
Frozen liver or jejunum were immediately added to 4 ml of TRIzol reagent (Invitrogen Life Technologies) and homogenized using a Polytron 300D homogenizer (Brinkman Instruments, Westbury, NY). […] Nucleic acid concentration was determined by OD 260 nm (Smart-Spec, Bio-Rad Laboratories, Hercules, CA), and RNA integrity was evaluated using an Agilent 2100 bioanalyzer (Agilent Technologies, Foster City, CA). […]

[2] = target: T1, aryl hydrocarbon receptor (AhR) (Homo sapiens, UniProt P35869); assay: AhR luciferase reporter assay in HepG2 cells; type: cell-based
T1 construct: endogenous in cells; host or cells: HepG2
T1 sequence (P35869 11-848): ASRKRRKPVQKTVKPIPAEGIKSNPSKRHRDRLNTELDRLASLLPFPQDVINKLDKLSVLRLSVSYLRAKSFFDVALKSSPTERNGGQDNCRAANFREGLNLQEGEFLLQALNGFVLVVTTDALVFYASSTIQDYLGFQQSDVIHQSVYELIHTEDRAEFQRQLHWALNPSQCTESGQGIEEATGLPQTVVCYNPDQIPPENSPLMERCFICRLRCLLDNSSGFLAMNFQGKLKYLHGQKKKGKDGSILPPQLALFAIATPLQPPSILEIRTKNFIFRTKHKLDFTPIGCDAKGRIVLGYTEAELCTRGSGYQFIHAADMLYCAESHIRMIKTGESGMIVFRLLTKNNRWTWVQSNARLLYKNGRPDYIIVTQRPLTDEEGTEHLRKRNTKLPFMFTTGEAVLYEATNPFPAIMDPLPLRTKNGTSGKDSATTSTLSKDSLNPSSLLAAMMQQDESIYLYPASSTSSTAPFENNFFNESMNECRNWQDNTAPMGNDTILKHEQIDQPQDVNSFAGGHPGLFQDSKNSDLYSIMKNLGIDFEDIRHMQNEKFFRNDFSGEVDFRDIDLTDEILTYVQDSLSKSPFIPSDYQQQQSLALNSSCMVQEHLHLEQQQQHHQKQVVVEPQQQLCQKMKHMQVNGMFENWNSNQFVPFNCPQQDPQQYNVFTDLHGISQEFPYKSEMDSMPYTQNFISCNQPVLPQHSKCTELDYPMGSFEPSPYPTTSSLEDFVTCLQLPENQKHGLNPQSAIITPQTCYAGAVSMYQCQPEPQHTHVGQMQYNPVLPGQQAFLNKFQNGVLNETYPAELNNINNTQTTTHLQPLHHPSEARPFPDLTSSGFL
Description: HepG2 cells were transiently transfected overnight with the construct (1200 bp portion of the human CYP1A1 promoter region containing 2 copies of the functional consensus sequence for the DRE in luc2P luciferase vector (SwitchGear Genomics cat# 114555, Menlo Park, CA) using lipofectin (Invitrogen Life Technologies) at 500 ng construct per million cells. Following transfection, the cells were replated in a 96-well format and dosed for 24 h with 0.1% (v/v) DMSO vehicle, 3-MC at 0.05, 0.1, 0.5, 1, 5, 10 μM, and A-998679 at 1.5625, 3.125, 6.25, 12.5, 25, and 50 μM. Luminescence signal was generated using the Dual-Luciferase Reporter Assay System (Promega, Madison, WI) and detected with a Tecan Genios Pro reader (Männedorf, Switzerland).

Q: With N#Cc1cccc(-c2noc(-c3cccnc3)n2)c1 [A-998679, 3-(5-pyridin-3-yl-1,2,4-oxadiazol-3-yl) benzonitrile] as the compound, how does the “Cyp1a2 mRNA increase in rat liver (microarray)” value ([1]; 5 days of dosing, in at least one animal starting at the 100 mg/kg dose) read?
A: 2–3 fold

Q: What about the “Cyp1a2 mRNA expression in rat liver (RT-PCR)” value ([1]; 5 days, all doses (30, 100, 200 mg/kg/day)) of the same compound?
A: strongly induced

Q: And the “lowest level activating the DRE” value ([2]; gene reporter assay)?
A: ~ 6 μM

Q: And the EC50 ([2]; luciferase reporter with human DRE construct, 24 h, read-out: EC50, activation of AhR signaling)?
A: 16.2 µM

Q: And the “maximal increase over vehicle” value ([2]; luciferase reporter, 24 h)?
A: 56 fold
